Data published in patent publication US5464834A, “N-substituted N'-heterobicyclic piperazines having pharmaceutical activity” (Adir et Compagnie, priority 1992, dated 1995).
Like-named read-outs stand apart in the source and are kept apart here.

Columns and labels:
5HT1A receptors [1] = biological target: T1, 5HT1A receptors (Rattus norvegicus, UniProt P19327); assay: Flat body posture (FBP), agonist (alone) and antagonist (vs 8-OH-DPAT); format: in vivo, rat (male Wistar); set-up: from tissue; host or cells: whole living male Wistar rats (endogenous receptor); settings: for ED50: rat, sc
T1 sequence (P19327 1-422): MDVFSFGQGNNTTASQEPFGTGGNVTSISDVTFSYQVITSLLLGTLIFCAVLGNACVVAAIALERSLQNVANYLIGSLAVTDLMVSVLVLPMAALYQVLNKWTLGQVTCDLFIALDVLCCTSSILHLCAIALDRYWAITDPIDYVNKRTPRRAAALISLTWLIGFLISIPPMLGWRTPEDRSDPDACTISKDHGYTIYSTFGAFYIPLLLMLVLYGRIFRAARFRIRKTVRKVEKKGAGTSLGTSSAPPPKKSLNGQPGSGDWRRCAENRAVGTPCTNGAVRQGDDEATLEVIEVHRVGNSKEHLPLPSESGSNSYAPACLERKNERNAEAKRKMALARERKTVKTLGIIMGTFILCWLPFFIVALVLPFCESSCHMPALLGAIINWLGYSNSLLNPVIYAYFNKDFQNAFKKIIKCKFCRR
Procedure: (§1) The tests were carried out using male Wistar rats weighing 200 to 220 g having free access to their food and to their drinking water in standard cages.
(§2) The animals are isolated individually for the tests for hypothermia, corticosterone secretion and flat body posture, or combined in groups of three for the tailflick test.
(§3) The compounds to be studied were administered by the subcutaneous route (s.c.) 60 minutes before the beginning of the test, that is to say 30 minutes before the solvent (agonist responses) or the 8-OH-DPAT (antagonist responses).
(§4) In all of the tests the solvent is used in parallel as a control. The animals were left to rest in their cage during the period between the injections and the evaluation. For the agonist studies, the solvent was administered at 1 ml/kg s.c. 30 minutes before the beginning of the test. For the antagonist studies, doses of 8-OH-DPAT that induce sub-maximal responses were chosen, that is doses of 0.63, 0.16, 0.16 and 0.16 mg/kg s.c. for, respectively, the tail flick test, flat body posture test, corticosterone secretion test and hypothermia test.
(§5) The same animals were used to evaluate the influence of the compounds studied on FBP and on the determination of the plasma concentration of CS. All of the tests were carried out in the morning between 10.30 and 12.300 that is to say when the circadian levels of CS are lowest.
25 minutes after the treatment (that is to say 5 minutes before decapitation) the animals are observed in their cages and the presence or absence of FBP is noted.
(§6) The presence of FBP is defined by a characteristic posture of the animal. That posture is in the ventral decubitus position with the posterior limbs clearly extended. 5 minutes after the observation of FBP, the animals are decapitated and the blood from the trunk is collected in cooled tubes containing 50 μl of a 10% EDTA solution. After centrifugation at 4000 revs/min, the plasma is removed and stored at -30° C. until determination.
(§7) In general, after variance analysis, the results are subjected to the Dunett test. The results are taken as significant if p <0.05.
For the dose-response for the induction and inhibition of FBP, the ED50 values (doses at which 50% of the animals show a response) were calculated by the Litchfield and Wilcoxon method.
(§8) The doses of the compounds tested are all expressed in base terms. Unless specified otherwise, all of the compounds were dissolved in sterile water (to which if necessary a few drops of lactic acid were added) and administered at a volume of 1 ml/kg s.c.

5HT1A receptors [2] = biological target: T1, 5HT1A receptors; assay: Corticosterone secretion (CS), agonist (alone) and antagonist (vs 8-OH-DPAT); format: in vivo, rat (male Wistar); set-up: from tissue; host or cells: whole living male Wistar rats (endogenous receptor); settings: for CS secretion MED alone: agonist test, compound alone s.c., minimum effective dose vs control; for ED50: rat, sc, read-out: CS secretion ID50 (95% CL) + DPAT
Procedure: as §1, §2, §3, §4, §5, §6
The CS was determined by a radio-competitive determination for a plasma protein that binds the CS: transcortine. The latter is obtained from a monkey serum. The separation of the CS-transcortine complexes from the free CS was carried out by means of a solution of dextran and active carbon. The detection limit was 50 pg/tube. The intra- and inter-experiment variations in determination were 5 and 15% respectively [cf Rivet J. M. et al, Eur. J. Pharmacol., 183,634-635 (1990)].
The CS base rates in the plasma never being zero, the following formula was used to calculated the percentage inhibition of plasma CS induced by 8-OH-DPAT: [formula]
as §7, §8

5HT1A receptors [3] = biological target: T1, 5HT1A receptors; assay: Body temperature / hypothermia, agonist (alone) and antagonist (vs 8-OH-DPAT); format: in vivo, rat (male Wistar); set-up: from tissue; host or cells: whole living male Wistar rats (endogenous receptor); settings: for ED50: rat, sc, read-out: HYPOTHERMIA ID50 (95% CL) + DPAT
Procedure: as §1, §2, §3, §4
The rats are immobilised and a lubricated digital thermometer (Termistroprobe of Testotherm, Basle, Switzerland) is inserted into the rectum to a depth of 5 cm. 30 seconds after insertion, the temperature is read on a digital scale. The percentage inhibition is calculated using the formula given above.
as §7, §8

5HT1A receptors [4] = biological target: T1, 5HT1A receptors; assay: In vitro binding test, 5HT1A receptors ([3H]-8-OH-DPAT, hippocampus membranes); set-up: The hippocampus of the brains of decapitated rats was immediately frozen; from tissue; host or cells: hippocampus membranes of male Wistar rats; species or system rat (male Wistar)
Procedure: as §1
The hippocampus of the brains of decapitated rats was immediately frozen on solid carbon dioxide and then kept at -80° C. until preparation of the membranes. The tissue was homogenised at 4° C. in the appropriate buffer using a Polytron (Brinkman Instruments, Lucerne, Switzerland) and centrifuged at 20,000 revs/min.
Incubation was carried out for 30 minutes at 25° C. Non-specific binding was established by […] of 5HT. The tests were terminated by rapid filtration using a Brandel harvester through glass fibre filters pretreated with 0.1% polyethylene imine.
The IC50 values were determined in accordance with process 8 of Tallarida R. J. and Murray R. B., Manual of Pharmacological calculations with computer programs, Springer Verlag, New York, (1987).
The pKi was calculated in accordance with the following formula: [formula] wherein [L] is the concentration of the hot ligand (^[3] H-8-OH-DPAT, 0.4 nM) and Kd is the apparent dissociation constant determined from the saturation experiments.
The substances studied were dissolved in the incubation buffer.
Binding of 5HT1A receptors

5HT1A receptors [5] = biological target: T1, 5HT1A receptors; assay: Spontaneous tail flick (STF) test, agonist (alone) and antagonist (vs 8-OH-DPAT); format: in vivo, rat (male Wistar); set-up: from tissue; host or cells: whole living male Wistar rats (endogenous receptor)
Procedure: as §1, §2, §3, §4
The tail flicks were determined on the animals in horizontal opaque plastics cylinders with the tail of the animals hanging freely on the edge of the laboratory work bench. After allowing 5 minutes for adaptation, the number of movements made in 5 minutes was recorded. An STF is defined as being an elevation of the tail to a level higher than that of the axis of the body [Millan M. J. et al., J. Pharmacol. Exp. Ther., 256, 973-982 (1990)].
as §7, §8

5HT1A receptor = assay: Overall in vivo agonist/antagonist behaviour at 5HT1A receptors; set-up: species or system rat (male Wistar); settings: Tables 1 and 2
5HT1A receptors [6] = biological target: T1, 5HT1A receptors; assay: Drug discrimination (DD) 8-OH-DPAT; format: in vivo, rat (male Wistar); set-up: from tissue; host or cells: whole living male Wistar rats (endogenous receptor); settings: rat, sc
Procedure: as §1
Male rats are maintained at 85% of their normal body weight by means of food restriction. In soundproofed chambers the animals are trained to press a pedal to obtain food according to an FR10 procedure (Fixed Ratio 10; the food is supplied to the rat when it has pressed the lever 10 times).
Daily sessions of 15 minutes are preceded by an injection of solvent or of the training drug (0.31 mg/kg of 8-OH-DPAT, j.p.). The animal receives a pellet of food after pressing 10 times on the "solvent" or "drug" pedal according to the compound administered before the session.
After the learning period the animals are tested twice a week (Wednesday and Friday). On the other three days training sessions are carried out.
On the training days the rats are given either solvent or 8-OH-DPAT 15 minutes before being tested.
On the test days the rats receive the chemical substance 60 minutes before the session.
The capacity of the chemical substance administered to induce a response (pressing on the "solvent" or "drug" (8-OH-DPAT ) lever ) is recorded.
7 animals chosen at random are used for each substance and for each dose. During the test period, the lever on which the rat first presses 10 times is determined as the lever chosen--a food pellet is then delivered. That selected lever will be reinforced by the delivery of food up to the end of the test session. The percentage of animals selecting the "drug" lever at a particular dose is calculated. In addition, the total number of responses carried out on the two levers is expressed as a percentage of the number of responses carried out on the "solvent" lever obtained on the occasion of a preceding training session.
as §8

[7] = agonist test, compound alone s.c., read-out: FBP ED50 (95% CL) alone
[8] = antagonist test, s.c., vs 8-OH-DPAT 0.16 mg/kg s.c., read-out: FBP ID50 (95% CL) + DPAT
[9] = antagonist test, s.c., vs 8-OH-DPAT 0.16 mg/kg s.c.
[10] = agonist test, compound alone s.c., minimum effective dose vs control
[11] = rat hippocampus, [3H]-8-OH-DPAT 0.4 nM, 30 min at 25° C, read-out: AFFINITY (pKi) (converted)

Structure (SMILES)	ED50 (5HT1A receptors [1]; [7]) [mg/kg]	ED50 (5HT1A receptors [1]; [8]) [mg/kg]	CS secretion MED alone (5HT1A receptors [2]) [mg/kg]	ED50 (5HT1A receptors [2]; [9]) [mg/kg]	HYPOTHERMIA MED alone (5HT1A receptors [3]; [10]) [mg/kg]	ED50 (5HT1A receptors [3]; [9]) [mg/kg]	Ki (5HT1A receptors [4]; [11]) [nM]	Ki (5HT1A receptors [4]) [nM]	other results
c1cc2c(c(N3CCN(CCc4ccsc4)CC3)c1)OCCO2 [Example 11, 4-(Benzodioxan-5-yl)-1-[2-(thiophen-3-yl)ethyl]piperazine]	> 2.5	< 2.5	> 2.5	2.5	> 2.5	0.16		1.2	
c1csc(CCN2CCN(c3cccc4c3OCCO4)CC2)c1 [Example 13, 4-(Benzodioxan-5-yl)-1-[2-(thiophen-2-yl)ethyl]piperazine]								1.1	
c1cc2c(c(N3CCN(CCc4cc5ccsc5s4)CC3)c1)OCCO2 [Example 8, 4-(Benzodioxan-5-yl)-1-[2-(thieno[2,3-b]thiophen-2-yl)ethyl]piperazine]								0.589	
O=C1CC2(CCCC2)CC(=O)N1CCCCN1CCN(c2ncccn2)CC1 [buspirone, reference compound]			2.5						behaviour at 5HT1A receptor (agonist/antagonist, in words) (5HT1A receptor): agonist behaviour; STFs MED alone (5HT1A receptors [5]; [10]): > 40.0 mg/kg; % MPA (% maximum possible antagonism), STFs (5HT1A receptors [5]; vs 8-OH-DPAT 0.63 mg/kg s.c.): 86%; ED50 (5HT1A receptors [1]; read-out: FBP ID50 (95% CL) + DPAT): > 10 mg/kg; % MPA (% maximum possible antagonism), FBP (5HT1A receptors [1]; vs 8-OH-DPAT 0.16 mg/kg s.c.): 0%; ED50 (5HT1A receptors [2]): > 10 mg/kg; % MPA (% maximum possible antagonism), CS secretion (5HT1A receptors [2]; vs 8-OH-DPAT 0.16 mg/kg s.c.): 0%; H[…] alone (5HT1A receptors [3]; [10]): 2.5 mg/kg; ED50 (5HT1A receptors [3]): > 10 mg/kg; % MPA (% maximum possible antagonism), HYPOTHERMIA (5HT1A receptors [3]; vs 8-OH-DPAT 0.16 mg/kg s.c.): 0%; ED50 (5HT1A receptors [6]; read-out: DD 8-OH-DPAT ED50 (95% CL) alone): 1.35 mg/kg; ED50 (5HT1A receptors [6]; read-out: DD 8-OH-DPAT ID50 (95% CL) + DPAT): > 2.5 mg/kg
c1cc2c(c(N3CCN(CCc4csc5ccccc45)CC3)c1)OCCO2 [Example 7, 4-(Benzodioxan-5-yl)-1-[2-(benzo[b]thiophen-3-yl)ethyl]piperazine]								0.724	
c1cc2c(c(N3CCN(CCCCc4ccsc4)CC3)c1)OCCO2 [Example 4, 4-(Benzodioxan-5-yl)-1-[4-(thiophen-3-yl)butyl]piperazine]							0.38		

Further lines, with some results ahead:

ED50 (5HT1A receptors [1]; [7]) [mg/kg]	ED50 (5HT1A receptors [1]; [8]) [mg/kg]	CS secretion MED alone (5HT1A receptors [2]) [mg/kg]	ED50 (5HT1A receptors [2]; [9]) [mg/kg]	HYPOTHERMIA MED alone (5HT1A receptors [3]; [10]) [mg/kg]	ED50 (5HT1A receptors [3]; [9]) [mg/kg]	Ki (5HT1A receptors [4]; [11]) [nM]	Structure (SMILES)	Ki (5HT1A receptors [4]) [nM]	other results
< 10	1.6	> 10.0	1.56	> 2.5	0.5	1.7	c1cc2c(c(N3CCN(CC4Cc5ccsc5C4)CC3)c1)OCCO2 (racemic) [Example 3]		ED50 (5HT1A receptors [5]; rat, sc, antagonist test, s.c., vs 8-OH-DPAT 0.63 mg/kg s.c., read-out: STFs ID50 (95% CL) + DPAT): < 0.16 mg/kg; % MPA (% maximum possible antagonism), FBP (5HT1A receptors [1]; vs 8-OH-DPAT 0.16 mg/kg s.c.): 100%; % MPA (% maximum possible antagonism), CS secretion (5HT1A receptors [2]; vs 8-OH-DPAT 0.16 mg/kg s.c.): 100%
> 2.5	< 2.5	> 2.5	2.5	> 10.0	0.32	1.29	c1cc2c(c(N3CCN(CCc4cccc5ccccc45)CC3)c1)OCCO2 [Example 5, 4-(Benzodioxan-5-yl)-1-[2-(naphth-1-yl)ethyl]piperazine]		
						1.02	c1cc2c(c(N3CCN(CCc4ccc5ccccc5c4)CC3)c1)OCCO2 [Example 6, 4-(Benzodioxan-5-yl)-1-[2-(naphth-2-yl)ethyl]piperazine]		
> 2.5	< 2.5	> 2.5	2.5	> 2.5	0.63	1.7	c1ccc(CCCN2CCN(c3cccc4c3OCCO4)CC2)cc1 [Example 12, 4-(Benzodioxan-5-yl)-1-(3-phenylpropyl)piperazine]		
